Measured values as given in ChEMBL document CHEMBL3797029, “Purinylpyridinylamino-based DFG-in/αC-helix-out B-Raf inhibitors: Applying mutant versus wild-type B-Raf selectivity indices for compound profiling” (Bioorg Med Chem, 2016).

Experiments:
[1] = biological target: T1, Serine/threonine-protein kinase B-raf (Homo sapiens, UniProt P15056); experiment: Inhibition of wild type B-Raf (unknown origin) assessed as MEK1 phosphorylation using MEK1-Avitag as substrate after 1 hr by HTRF assay
[2] = biological target: T2, Serine/threonine-protein kinase B-raf (Homo sapiens, UniProt P15056, V600E); experiment: Inhibition of B-Raf V600E mutant (unknown origin) assessed as MEK1 phosphorylation using MEK1-Avitag as substrate after 1 hr by HTRF assay
T2 sequence (P15056 2-766 V600E limits assumed): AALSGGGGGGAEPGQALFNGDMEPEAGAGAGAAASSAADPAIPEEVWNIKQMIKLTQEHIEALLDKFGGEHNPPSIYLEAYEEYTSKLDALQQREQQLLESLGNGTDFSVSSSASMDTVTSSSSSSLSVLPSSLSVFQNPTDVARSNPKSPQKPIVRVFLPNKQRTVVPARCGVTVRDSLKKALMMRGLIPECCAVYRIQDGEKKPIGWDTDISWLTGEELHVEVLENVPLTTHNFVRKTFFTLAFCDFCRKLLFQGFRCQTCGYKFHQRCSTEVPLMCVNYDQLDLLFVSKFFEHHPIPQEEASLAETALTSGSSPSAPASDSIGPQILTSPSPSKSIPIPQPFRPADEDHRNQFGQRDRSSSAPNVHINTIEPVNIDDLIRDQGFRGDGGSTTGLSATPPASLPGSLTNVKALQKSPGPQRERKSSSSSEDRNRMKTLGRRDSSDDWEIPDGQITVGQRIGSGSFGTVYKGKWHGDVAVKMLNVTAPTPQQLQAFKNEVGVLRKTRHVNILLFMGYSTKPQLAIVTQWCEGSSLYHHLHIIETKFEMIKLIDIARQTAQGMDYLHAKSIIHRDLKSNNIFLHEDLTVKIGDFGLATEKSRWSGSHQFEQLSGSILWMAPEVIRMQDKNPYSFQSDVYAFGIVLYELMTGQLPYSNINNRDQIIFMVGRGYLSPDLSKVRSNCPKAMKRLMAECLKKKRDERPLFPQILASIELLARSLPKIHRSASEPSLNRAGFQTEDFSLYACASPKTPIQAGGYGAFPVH

[3] = biological target: T2, Serine/threonine-protein kinase B-raf; experiment: Inhibition of B-Raf V600E mutant in human A375 cells assessed as ERK phosphorylation preincubated for 1 hr by Western blot method; type: cell-based, A-375
[4] = biological target: T1, Serine/threonine-protein kinase B-raf; experiment: Inhibition of wild type B-Raf in human MIAPaCa2 cells assessed as reduction in ERK phosphorylation preincubated for 1 hr by Western blot method; type: cell-based, MIA PaCa-2
[5] = tested on: MIA PaCa-2; experiment: Selectivity index, ratio of EC50 for wild type B-Raf in human MIAPaCa2 cells to IC50 for B-Raf V600E mutant in human A375 cells; type: cell-based

T1 sequence (P15056 whole entry): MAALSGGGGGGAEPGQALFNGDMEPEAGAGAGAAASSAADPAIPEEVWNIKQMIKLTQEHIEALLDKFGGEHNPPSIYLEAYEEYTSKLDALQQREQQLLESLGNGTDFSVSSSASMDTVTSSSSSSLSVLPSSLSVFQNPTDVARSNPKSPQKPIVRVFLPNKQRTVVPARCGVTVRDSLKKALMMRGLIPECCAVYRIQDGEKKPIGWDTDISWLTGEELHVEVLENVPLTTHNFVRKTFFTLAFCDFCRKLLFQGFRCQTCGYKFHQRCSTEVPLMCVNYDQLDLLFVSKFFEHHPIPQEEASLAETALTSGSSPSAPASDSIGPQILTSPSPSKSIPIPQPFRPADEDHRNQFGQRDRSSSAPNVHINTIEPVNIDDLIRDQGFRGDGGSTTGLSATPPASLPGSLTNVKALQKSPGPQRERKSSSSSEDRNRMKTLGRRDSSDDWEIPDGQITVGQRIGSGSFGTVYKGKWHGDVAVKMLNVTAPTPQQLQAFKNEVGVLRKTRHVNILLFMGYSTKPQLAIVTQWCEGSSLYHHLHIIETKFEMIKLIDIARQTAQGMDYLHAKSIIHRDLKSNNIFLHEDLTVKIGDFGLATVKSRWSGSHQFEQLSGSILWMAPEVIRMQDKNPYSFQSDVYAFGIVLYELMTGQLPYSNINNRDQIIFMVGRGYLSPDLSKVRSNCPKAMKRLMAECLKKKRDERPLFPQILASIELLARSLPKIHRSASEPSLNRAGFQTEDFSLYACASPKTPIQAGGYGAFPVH

Row | Compound | IC50 [1] [nM] | IC50 [2] [nM] | IC50 [3] [nM] | EC50 [4] [nM] | Ratio [5]
1 | O=S(=O)(Nc1ccc(F)c(Nc2ncccc2-c2ncnc3[nH]cnc23)c1F)N1CCNCC1 | > 1000 | > 1000 | 1000 | – | –
2 | O=S(=O)(Nc1ccc(F)c(Nc2ncccc2-c2ncnc3[nH]cnc23)c1F)C1CCOC1 (stereo not given) | 26 | 5 | 31 | 1480 | 48
3 | O=S(=O)(Cc1ccccc1)Nc1ccc(F)c(Nc2ncccc2-c2ncnc3[nH]cnc23)c1F | 111 | 186 | > 1000 | 5080 | –
4 | O=S(=O)(Nc1ccc(F)c(Nc2ncccc2-c2ncnc3[nH]cnc23)c1F)c1cn[nH]c1 | 1 | 0.2 | 6 | 807 | 135
5 | O=S(=O)(Nc1ccc(F)c(Nc2ncccc2-c2ncnc3[nH]cnc23)c1F)N1CCOCC1 | 102 | 62 | 293 | 3580 | 12
6 | Cn1cc(S(=O)(=O)Nc2ccc(F)c(Nc3ncccc3-c3ncnc4[nH]cnc34)c2F)cn1 | 19 | 8 | 710 | 2220 | 3
7 | O=S(=O)(Nc1ccc(F)c(Nc2ncccc2-c2ncnc3[nH]cnc23)c1F)c1cccc(F)c1 | 4 | 3 | 15 | 1510 | 101
8 | O=S(=O)(Nc1ccc(F)c(Nc2ncccc2-c2ncnc3[nH]cnc23)c1F)C1CCCCC1 | 51 | 18 | 40 | 4370 | 109
9 | O=S(=O)(Nc1ccc(F)c(Nc2ncccc2-c2ncnc3[nH]cnc23)c1F)N1CC[C@H](O)C1 | 122 | 9 | 201 | – | –
10 | O=S(=O)(Nc1ccc(F)c(Nc2ncccc2-c2ncnc3[nH]cnc23)c1F)N1CC[C@@H](O)C1 | 68 | 16 | 233 | 7190 | 31
11 | O=S(=O)(Nc1ccc(F)c(Nc2ncccc2-c2ncnc3[nH]cnc23)c1F)c1cccnc1 | 1 | 1 | 10 | 786 | 79
12 | O=S(=O)(Nc1ccc(F)c(Nc2ncccc2-c2ncnc3[nH]cnc23)c1F)c1ccccc1F | 10 | 3 | 12 | 873 | 73
13 | O=S(=O)(Nc1ccc(F)c(Nc2ncccc2-c2ncnc3[nH]cnc23)c1F)N1CCCC1 | 31 | 2 | 44 | 2070 | 47
14 | O=S(=O)(Nc1ccc(F)c(Nc2ncccc2-c2ncnc3[nH]cnc23)c1F)c1ccccc1 | 17 | 7 | 28 | 2290 | 82
15 | O=S(=O)(Nc1ccc(F)c(Nc2ncccc2-c2ncnc3[nH]cnc23)c1F)C1CCOCC1 | 179 | 31 | 356 | – | –
16 | O=S(=O)(Nc1ccc(F)c(Nc2ncccc2-c2ncnc3[nH]cnc23)c1F)c1ccc(F)cc1 | 83 | 36 | 242 | 5650 | 23
17 | O=S(=O)(Nc1ccc(F)c(Nc2ncccc2-c2ncnc3[nH]cnc23)c1F)C1CCCC1 | 21 | 2 | 11 | 1800 | 164
18 | Cc1n[nH]c(C)c1S(=O)(=O)Nc1ccc(F)c(Nc2ncccc2-c2ncnc3[nH]cnc23)c1F | – | 216 | > 1000 | – | –
19 | O=S(=O)(Nc1ccc(F)c(Nc2ncccc2-c2ncnc3[nH]cnc23)c1F)c1nccs1 | 2 | 1 | 31 | 783 | 25
20 | O=S(=O)(Nc1ccc(F)c(Nc2ncccc2-c2ncnc3[nH]cnc23)c1F)c1cccs1 | 0.5 | 1 | 7 | 402 | 57
21 | O=S(=O)(Nc1ccc(F)c(Nc2ncccc2-c2ncnc3[nH]cnc23)c1F)c1ccccn1 | 41 | 21 | 177 | 7940 | 45
22 | O=S(=O)(Nc1ccc(F)c(Nc2ncccc2-c2ncnc3[nH]cnc23)c1F)N1CCCCC1 | 38 | 15 | 65 | 1220 | 19

Now from value to compound, other results behind:

Row | IC50 [1] [nM] | IC50 [2] [nM] | IC50 [3] [nM] | EC50 [4] [nM] | Compound | Ratio [5]
23 | 165 | 57 | 603 | 9910 | CCN(CC)S(=O)(=O)Nc1ccc(F)c(Nc2ncccc2-c2ncnc3[nH]cnc23)c1F | 16
24 | 12 | 9 | 24 | 936 | CCCS(=O)(=O)Nc1ccc(F)c(Nc2ncccc2-c2ncnc3[nH]cnc23)c1F | 39
25 | 66 | 14 | 45 | 1540 | CC(C)S(=O)(=O)Nc1ccc(F)c(Nc2ncccc2-c2ncnc3[nH]cnc23)c1F | 34
26 | 157 | 22 | 87 | 1780 | CCN(C)S(=O)(=O)Nc1ccc(F)c(Nc2ncccc2-c2ncnc3[nH]cnc23)c1F | 20
27 | 16 | 6 | 17 | 1450 | CC(C)CS(=O)(=O)Nc1ccc(F)c(Nc2ncccc2-c2ncnc3[nH]cnc23)c1F | 85
28 | 112 | 18 | 130 | 8090 | CCCC(C)S(=O)(=O)Nc1ccc(F)c(Nc2ncccc2-c2ncnc3[nH]cnc23)c1F (stereo not given) | 62
29 | 26 | 8 | 33 | 2140 | O=S(=O)(CC1CC1)Nc1ccc(F)c(Nc2ncccc2-c2ncnc3[nH]cnc23)c1F | 65
30 | 132 | 41 | 173 | 2070 | O=S(=O)(Nc1ccc(F)c(Nc2ncccc2-c2ncnc3[nH]cnc23)c1F)C1CC1 | 12
31 | 5 | 6 | 63 | 202 | CC(C)(C)CS(=O)(=O)Nc1ccc(F)c(Nc2ncccc2-c2ncnc3[nH]cnc23)c1F | 3
32 | 412 | 360 | 356 | 6690 | CS(=O)(=O)Nc1ccc(F)c(Nc2ncccc2-c2ncnc3[nH]cnc23)c1F | 19
33 | 38 | 7 | 27 | 778 | CCC(C)S(=O)(=O)Nc1ccc(F)c(Nc2ncccc2-c2ncnc3[nH]cnc23)c1F (stereo not given) | 29
34 | 46 | 4 | 41 | 1790 | O=S(=O)(Nc1ccc(F)c(Nc2ncccc2-c2ncnc3[nH]cnc23)c1F)C1CCC1 | 44
35 | 10 | 3 | 40 | 713 | O=S(=O)(CC(F)(F)F)Nc1ccc(F)c(Nc2ncccc2-c2ncnc3[nH]cnc23)c1F | 18
